How the values were obtained:
[1] = test system: Muc5ac secretion from conjunctival tissue; assay: Ex vivo Muc5ac secretion from conjunctival tissue, culture supernatant quantified by ELISA; assay type: cell-based, white rabbit; conditions: for amount of Muc5ac in culture supernatant in the presence of Compound 1: n=5, FIG. 1(b)
Method: In order to examine an effect of Compound 1 on an amount of Muc5ac secretion, ex vivo experiments were carried out using a conjunctival tissue from a white rabbit (Slc:JW/CSKSlc:NZW strain).
Specifically, a trephine with a diameter of 3 mm was used to sample a conjunctival tissue from a white rabbit. Next, the tissue sample was soaked in an HBSS containing 100 μM of Compound 1 for 90 minutes, 3 hours, 6 hours, or 12 hours. The conjunctival tissue of the control group was soaked in an HBSS having a physiological saline with a volume equal to that of Compound 1. After the conjunctival tissue was soaked for a predetermined time, its culture supernatant was collected. For each group, the experiment was performed at n=5.
The amount of Muc5ac included in the culture supernatant was detected using the following assay.
Assay for Muc5ac Secretion (ELISA Assay)
First, the culture supernatant of the conjunctival tissue of the control group was diluted using an HBSS, and a standard curve was prepared at a Muc5ac concentration of 500, 250, 125, 62.5, 31.25, 15.63, and 7.81 AU/mL (AU represents an arbitrary unit). The sample solutions were diluted with an HBSS in such a manner that absorbance at a wavelength of 450 nm was fitted within a range of the absorbance of the standard curve at a wavelength of 450 nm. Next, the solutions for the standard curve, the sample solutions for the test group, and the sample solutions for the control group were added to a 96-well microplate (#3590, manufactured by Corning Incorporated) at 100 μL/well, and were incubated overnight at 40° C. For each sample, the measurement was performed at n=2.
After the solutions for the standard curve and the sample solutions were removed, 200 μL of washing buffer was used to wash the wells three times. The washing buffer (hereinafter, also referred to as a TBST solution) was prepared by adding Tween-20 at a final concentration of 0.05% to Tris buffered saline (pH 7.6).
Then, 200 μL of blocking buffer (1% bovine serum albumin-containing TBST solution) was added to each well, and the plate was incubated at room temperature for 1 hour. After the blocking buffer had been removed, a primary antibody (an anti-human Muc5ac antibody, manufactured by NeoMarkers, Inc.; Clone 45M1) solution, which was 100-fold diluted with the blocking buffer, was added to the plate at 100 μL/well, and the plate was incubated at room temperature for 1 hour. After the primary antibody solution was removed, 200 μL of the washing buffer was used to wash the wells three times.
Then, a secondary antibody (an HRP-labelled sheep anti-mouse IgG antibody, manufactured by GE Healthcare, Inc.) solution, which was 2000-fold diluted with the blocking buffer, was added to the plate at 100 μL/well, and the plate was incubated at room temperature for 1 hour. After the secondary antibody solution was removed, 200 μL of the washing buffer was used to wash the wells three times.
In order to quantify the Muc5ac content in each sample, 100 μL of 3,3′,5,5′-tetramethylbenzidine was added to each well and the plate was incubated for coloring at room temperature for 30 minutes; and then 100 μL of 0.5 M sulfuric acid solution was added to each well to stop the reaction. Next, a microplate reader was used to measure the absorbance of each well at a wavelength of 450 nm. The Muc5ac content in each sample was calculated using the standard curve. […]
The amount of Muc5ac included in the culture supernatant was detected using the same ELISA assay as in Example 1.

[2] = test system: corneal epithelial tissue wound; assay: Wound healing effect on corneal epithelial tissue in vivo (fluorescein staining, wound area); set-up: species or system white rabbit; conditions: 100 μM solution instilled 30-50 μL/dose 4 times per day
Method: In order to examine an wound healing effect of Compound 1 on an corneal epithelial tissue, in vivo experiments were carried out using white rabbits (Slc:JW/CSKSlc:NZW strain).
Specifically, a trephine with a diameter of 8 mm was used to create a wound on a corneal epithelial tissue of a white rabbit. From the day of creating the wound, the test group was subjected to instillation administration of a solution containing 100 μM of Compound 1, which had been dissolved in a physiological saline solution, at a dosage of 30 μL to 50 μL/dose 4 times per day. The control group was subjected to instillation administration of a physiological saline solution at a dosage of 30 μL to 50 μL/dose 4 times per day. For each group, the experiment was performed at n=5.
In order to determine the area of the wound on the corneal epithelial tissue, a physiological saline solution and a fluorescein test paper were used to perform fluorescein staining of the corneal epithelial tissue; and a time course change in the area of the wound on the corneal epithelium was observed while its photographs were taken. The wound area was image-processed using Image J software and was statistically analyzed.

Muc5ac secretion = assay: In vivo instillation, then Muc5ac secreted into culture supernatant of sampled conjunctival tissue (ELISA); set-up: species or system white rabbit; conditions: 100 μM instilled 4 times per day for 3 days; tissue soaked in HBSS 1.5 and 3 hours, n=6, FIG. 4a
Method: In order to examine whether or not Compound 1 enhances Muc5ac secretion, in vivo experiments were carried out using white rabbits (Slc:JW/CSKSlc:NZW strain).
(§1) Specifically, the right eye of a white rabbit was subjected to instillation administration of a solution containing 100 μM of Compound 1, which had been dissolved in a physiological saline solution, at a dosage of 30 μL to 50 μL/dose 4 times per day. The left eye was subjected to instillation administration of a physiological saline solution as a control at a dosage of 30 μL to 50 μL/dose 4 times per day. For each group, the experiment was performed at n=6.
After 3 days with the above administration, each white domestic rabbit was euthanized and its conjunctival tissue was sampled using a trephine with a diameter of 5 mm. The sample was soaked in an HBSS; its culture supernatant was collected after an hour and a half; and further, after 3 hours, its culture supernatant and conjunctival tissue were collected. The amount of Muc5ac included in the culture supernatant was quantified using the same ELISA assay as in Example 1.

[3] = test system: Muc5ac protein in conjunctival tissue; assay: In vivo instillation, then amount of Muc5ac protein in conjunctival tissue lysate (ELISA); set-up: species or system white rabbit; conditions: 100 μM instilled 4 times per day for 3 days; tissue lysate at 500 ng/μL protein, FIG. 4b
Method: as §1
After 3 days with the above administration, each white domestic rabbit was euthanized and its conjunctival tissue was sampled using a trephine with a diameter of 5 mm. […] The amount of Muc5ac included in the culture supernatant was quantified using the same ELISA assay as in Example 1.
Meanwhile, 150 μL of SDS(−) RIPA lysis buffer (manufactured by Nacalai Tesque, Inc.) was added to the conjunctival tissue collected, and the tissue was soaked and incubated at 4° C. for 30 minutes, followed by homogenization. […] After a protein concentration was measured using Nano Drop (manufactured by Thermo Scientific, Inc.), the protein concentration was adjusted to 500 ng/μL. Subsequently, the amount of Muc5ac included in the protein solution prepared was quantified using the same ELISA assay as in Example 1.

[4] = test system: Muc5ac in conjunctival tissue; assay: In vivo instillation, then PAS staining of conjunctival tissue sections; set-up: species or system white rabbit; conditions: 100 μM instilled 4 times per day, FIG. 5
Method: as §1
Further, the conjunctival tissues from the control group and the administration group were subjected to PAS staining, which stains neutral polysaccharides and glycoproteins. Specifically, a conjunctival tissue was collected from a rabbit; the conjunctive tissue collected was cut into regions at the upper, nasal, lower, and ear sides; and paraffin sections were prepared. Next, after washed with distilled water for deparaffinization, the sections were immersed in 3% acetic acid aqueous solution and soaked in an alcian blue solution for 30 minutes. After washed with distilled water, the sections were soaked in 1% periodic acid aqueous solution for 10 minutes, washed with running water for 5 minutes, and washed with distilled water. After soaked in a cold Schiff reagent for 10 minutes, the sections were soaked in sulfurous acid solution for 3 minutes and subjected to sulfurous acid solution treatment. […]

With `O=C1NC(CO)C(=O)N2CC(O)CC12` [Compound 1, cyclo-trans-4-L-hydroxyprolyl-L-serine] the “amount of Muc5ac in culture supernatant, concentration dependence” value ([1]; 0, 1, 10 or 100 μM, soaked 6 hours, n=5, FIG. 2) was “increased depending on the concentration”, the “difference in the amount of Muc5ac between presence and absence of Compound 1, across culture times” value ([1]; 100 μM in HBSS, at 6 hours of culturing) was “most prominent” and the “amount of Muc5ac in culture supernatant compared with absence of Compound 1” value ([1]; 100 μM in HBSS, cultured 3 hours, n=5, FIG. 1(a)) was “increased”. For the same molecule, the “amount of Muc5ac in culture supernatant in the presence of Compound 1” value ([1]; 100 μM in HBSS, cultured 6 hours) was “increase”, the “amount of Muc5ac in culture supernatant in the presence of Compound 1” value ([1]; 100 μM in HBSS, cultured 12 hours) was “increase” and the “wound area of corneal epithelium versus control group” value ([2]; from Day 1, t-test p<0.01, FIG. 3) was “smaller”. The “time required for complete cure of the wound” value ([2]; control group 5 days) was 4 days, the “amount of Muc5ac in culture supernatant of conjunctival tissue compared with control group” value (Muc5ac secretion) was “remarkably high” and the “amount of Muc5ac protein in the conjunctival tissue versus control group” value [3] was “approximately equal”. The “amount of Muc5ac (stained red-purple) in the conjunctival tissue by PAS staining versus control group” value [4] was “apparently lower”.
